Laboratory results reported in ChEMBL document CHEMBL4765241, “Identification and Preclinical Pharmacology of ((1 R,3 S)-1-Amino-3-(( S)-6-(2-methoxyphenethyl)-5,6,7,8-tetrahydronaphthalen-2-yl)cyclopentyl)methanol (BMS-986166): A Differentiated Sphingosine-1-phosphate Receptor 1 (S1P) Modulator Advanced into Clinical Trials” (J Med Chem, 2019).
Values belong to the compound of their own block, whether it stands above or below them. Calls of active or inactive are those of the source. No cut-off for these calls is given here.

Legend:
Mus musculus [1] = assay: Reduction in circulating lymphocytes in Balb/c mouse blood at 0.5 mg/kg, po measured at 4 hrs by hematology analyzer based analysis; assay type: functional; parameters: scale not given: the % may be the effect or the level left
Mus musculus [2] = assay: Reduction in circulating lymphocytes in Balb/c mouse blood at 30 mg/kg, po measured at 4 hrs by hematology analyzer based analysis; assay type: functional; parameters: scale not given: the % may be the effect or the level left
Mus musculus [3] = assay: Reduction in circulating lymphocytes in Balb/c mouse blood at 0.5 mg/kg, po measured at 24 hrs by hematology analyzer based analysis; assay type: functional; parameters: scale not given: the % may be the effect or the level left
Mus musculus [4] = assay: Reduction in circulating lymphocytes in Balb/c mouse blood at 30 mg/kg, po measured at 24 hrs by hematology analyzer based analysis; assay type: functional; parameters: scale not given: the % may be the effect or the level left
[5] = Drug metabolism in Balb/c mouse blood assessed as concentration of parent compound at 0.5 mg/kg, po measured at 4 hrs by LC-MS/MS analysis; assay type: ADME, organism-based; details: in vivo, BLD = below limit of detection
[6] = Drug metabolism in Balb/c mouse blood assessed as concentration of parent compound at 30 mg/kg, po measured at 4 hrs by LC-MS/MS analysis; assay type: ADME, organism-based; details: Balb/c, blood, read-out: Ct
[7] = Drug metabolism in Balb/c mouse blood assessed as concentration of phosphate ester metabolite at 0.5 mg/kg, po measured at 4 hrs by LC-MS/MS analysis; assay type: ADME, organism-based; details: in vivo, BLD = below limit of detection
[8] = Drug metabolism in Balb/c mouse blood assessed as phosphate ester metabolite formation at 30 mg/kg, po measured at 4 hrs by LC-MS/MS analysis; assay type: ADME, organism-based; details: in vivo
[9] = Drug metabolism in Balb/c mouse blood assessed as concentration of parent compound at 0.5 mg/kg, po measured at 24 hrs by LC-MS/MS analysis; assay type: ADME, organism-based; details: read-out: Ct
[10] = Drug metabolism in Balb/c mouse blood assessed as concentration of parent compound at 30 mg/kg, po measured at 24 hrs by LC-MS/MS analysis; assay type: ADME, organism-based; details: Balb/c, blood, read-out: Ct
[11] = Drug metabolism in Balb/c mouse blood assessed as concentration of phosphate ester metabolite formation at 0.5 mg/kg, po measured at 24 hrs by LC-MS/MS analysis; assay type: ADME, organism-based; details: in vivo
[12] = Drug metabolism in Balb/c mouse blood assessed as concentration of phosphate ester metabolite formation at 30 mg/kg, po measured at 24 hrs by LC-MS/MS analysis; assay type: ADME, organism-based; details: in vivo
[13] = Ratio of drug metabolism in Balb/c mouse blood assessed as phosphate ester metabolite to parent drug at 0.5 mg/kg, po measured at 24 hrs by LC-MS/MS analysis; assay type: ADME, organism-based; details: in vivo
[14] = Ratio of drug metabolism in Balb/c mouse blood assessed as phosphate ester metabolite to parent drug at 30 mg/kg, po measured at 24 hrs by LC-MS/MS analysis; assay type: ADME, organism-based; details: in vivo
Rattus norvegicus [15] = assay: Reduction in circulating lymphocytes in Lewis rat blood at 3 mg/kg, po measured at 4 hrs by hematology analyzer based analysis; assay type: functional; parameters: scale not given: the % may be the effect or the level left
[16] = Drug metabolism in Lewis rat blood assessed as concentration of parent compound at 3 mg/kg, po measured at 4 hrs by LC-MS/MS analysis; assay type: ADME, organism-based; details: read-out: Ct
Rattus norvegicus [17] = assay: Reduction in circulating lymphocytes in Lewis rat blood at 3 mg/kg, po measured at 24 hrs by hematology analyzer based analysis; assay type: functional; parameters: scale not given: the % may be the effect or the level left
[18] = Drug metabolism in Lewis rat blood assessed as concentration of parent compound at 3 mg/kg, po measured at 24 hrs by LC-MS/MS analysis
[19] = Half-life in Lewis rat at 3 mg/kg, po measured over 72 hrs by LC-MS/MS analysis; assay type: ADME, organism-based; details: in vivo
[20] = Ratio of drug metabolism in Lewis rat blood assessed as phosphate ester metabolite to parent drug at 3 mg/kg, po measured at 24 hrs by LC-MS/MS analysis; assay type: ADME, organism-based; details: in vivo
[21] = Terminal half-life in Sprague-Dawley rat at 1 mg/kg, iv; assay type: ADME, organism-based; details: in vivo, read-out: beta t1/2 (converted)
[22] = Terminal half-life in beagle dog at 1 mg/kg, iv; assay type: ADME, organism-based, Canis lupus familiaris; details: in vivo, read-out: beta t1/2 (converted)
[23] = Terminal half-life in cynomolgus monkey at 1 mg/kg, iv; assay type: ADME, organism-based, Macaca fascicularis; details: in vivo, read-out: beta t1/2 (converted)
[24] = AUC ratio in orally dosed Sprague-Dawley rat blood assessed as phosphate metabolite to parent compound; assay type: ADME, organism-based; details: in vivo, po
[25] = AUC ratio in orally dosed Beagle dog blood assessed as phosphate metabolite to parent compound; assay type: ADME, organism-based, Canis lupus familiaris; details: in vivo, po
[26] = AUC ratio in orally dosed cynomolgus monkey blood assessed as phosphate metabolite to parent compound; assay type: ADME, organism-based, Macaca fascicularis; details: in vivo, po
Rattus norvegicus [27] = assay: Drug metabolism in Lewis rat blood assessed as concentration of phosphate ester metabolite formation at 3 mg/kg, po measured at 4 hrs by LC-MS/MS analysis; details: in vivo
[28] = Pulmonary toxicity in Lewis rat assessed as elevation of BAL protein level at 3 mg/kg by advia1800 chemistry analyzer; assay type: organism-based; details: in vivo
Rattus norvegicus [29] = assay: Reduction in circulating lymphocytes in Lewis rat blood assessed as effective dose after oral dosing measured at 24 hrs by hematology analyzer based analysis; assay type: functional
[30] = AUC ratio in orally dosed human blood assessed as phosphate metabolite to parent compound; assay type: ADME, organism-based; details: po
Mus musculus [31] = assay: Immunosuppressive activity in MOG (35 to 55 residues)/pertussis toxin-induced experimental autoimmune encephalomyelitis C57BL/6 mouse model assessed as reduction in formation of inflammatory lesions in CNS at 1 mg/kg, po QD starting from day 1 post immunization and measured thrice weekly until day 24; assay type: functional, organism-based
[32] = Cardiotoxicity in human iPSC derived cardiomyocytes assessed as reduction in beating rate at 1 nM measured over 2 hrs by multi-electrode array relative to control; assay type: toxicity, cell-based; parameters: scale not given: the % may be the effect or the level left; details: stem cell-derived cardiomyocyte, 0.001 µM
[33] = Cardiotoxicity in human iPSC derived cardiomyocytes assessed as reduction in beating rate at 10 nM measured over 2 hrs by multi-electrode array relative to control; assay type: toxicity, cell-based; parameters: scale not given: the % may be the effect or the level left; details: stem cell-derived cardiomyocyte, 0.01 µM
[34] = target: T1, Sphingosine 1-phosphate receptor 4 (Homo sapiens, UniProt O95977); assay: Agonist activity at human recombinant S1P4 expressed in CHO cell membranes assessed as stimulation of [35S]-GTPgammaS binding measured after 45 mins by liquid scintillation counting assay; assay type: functional, Cell membrane
T1 sequence (O95977 whole entry): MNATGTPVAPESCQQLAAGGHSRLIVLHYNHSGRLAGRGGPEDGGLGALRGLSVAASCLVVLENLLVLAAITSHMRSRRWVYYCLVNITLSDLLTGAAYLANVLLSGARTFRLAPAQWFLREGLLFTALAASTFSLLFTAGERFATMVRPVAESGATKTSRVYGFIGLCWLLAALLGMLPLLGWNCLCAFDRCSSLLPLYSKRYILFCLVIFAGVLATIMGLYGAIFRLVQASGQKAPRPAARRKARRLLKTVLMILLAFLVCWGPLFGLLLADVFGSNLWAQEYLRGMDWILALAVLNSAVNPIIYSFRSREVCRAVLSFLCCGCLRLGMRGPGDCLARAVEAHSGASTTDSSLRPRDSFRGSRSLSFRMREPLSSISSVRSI

Cerebellar cortex [35] = assay: Induction of remyelination in lysophosphatidylcholine-induced demyelination in wild-type CD1 mouse organotypic cerebellar slice at 0.01 to 10 nM incubated for 7 days by immunohistochemistry based three-dimensional brain cell culture assay; assay type: functional, tissue-based; details: dose 0.01-10 nM, time 7.0 day
Cerebellar cortex [36] = assay: Induction of remyelination in lysophosphatidylcholine-induced demyelination in wild-type CD1 mouse organotypic cerebellar slice assessed as myelination index at 0.01 to 10 nM incubated for 7 days by immunohistochemistry based three-dimensional brain cell culture assay (reference value: 50%); assay type: functional; details: dose 0.01-10 nM, time 7 day

Ct [5]: Bld
concentration at 4 h [6]: 1000 nM
Drug metabolism [7]: Bld
Drug metabolism [8]: 150 nM
concentration at 24 h [9]: 19 nM
concentration at 24 h [10]: 1200 nM
Drug metabolism [11]: 20 nM
Drug metabolism [12]: 620 nM
Ratio [13]: 1
Ratio [14]: 0.5
concentration at 4 h [16]: 130 nM
half-life [19]: > 75 h
Ratio [20]: 1.6
half-life [21]: 131 h
half-life [22]: 131 h
half-life [23]: 131 h
Ratio AUC [24]: 2.5
Ratio AUC [25]: 2.4
Ratio AUC [26]: 0.3
Drug metabolism (Rattus norvegicus [27]): 90 nM
Structure (SMILES): CCCCCC[C@@H]1CCc2cc([C@H]3CC[C@](N)(CO)C3)ccc2C1 [BMS-986104]
Activity (Mus musculus [1]): 17%
Activity (Mus musculus [2]): 88%
Activity (Mus musculus [3]): 73%
Activity (Mus musculus [4]): 90%
Activity (Rattus norvegicus [15]): 48%
Activity (Rattus norvegicus [17]): 82%
Ct [18]: 160 nM

Structure (SMILES): CCCCCCCCc1ccc(CCC(N)(CO)CO)cc1 [FINGOLIMOD]
Activity [28]: 12.5 mg/dL
ED50 (Rattus norvegicus [29]): 0.1 mg/kg
Ratio AUC [24]: 5.6
Ratio AUC [25]: 3.7
Ratio AUC [26]: 5.9
Ratio AUC [30]: 0.42
Activity (Mus musculus [31]): Active

EC50 [34]: 1.6 nM
Structure (SMILES): CCCCCCCCc1ccc(CC[C@](N)(CO)COP(=O)(O)O)cc1 [FTY720-P]
Activity [32]: 38%
Activity [33]: 62%
Activity (Cerebellar cortex [35]): Active
Activity (Cerebellar cortex [36]): 100%
